Measured values as given in patent US9101616B2, “Aryl substituted carboxamide derivatives as calcium or sodium channel blockers” (RaQualia Pharma Inc., priority 2009, dated 2015).

biological target: T1, human T-type channel alpha-1H (CaV 3.2) (Homo sapiens, UniProt O95180); assay: Ca2+ Influx Assay (cell-based fluorescent, FDSS); conditions: HEK 293 cells expressing human CaV 3.2
T1 construct: expressed in transfected cells; host or cells: HEK 293
Description: Inhibition of T-type calcium channel activity was determined by cell-based flu-orescent Ca^2+ influx assay, in which potassium ionophore was added to decrease resting membrane potential and extra-cellular high-K^+ stimulation was used to modulate the membrane potential of the cell. The changes in fluorescent signal were monitored by the cell imaging technology by Hamamatsu Photonics's Functional Drug Screening System (FDSS).
HEK 293 cells expressing the human T-type channel alpha-1H (CaV 3.2) were maintained in DMEM supplemented with 10% heat-inactivated FBS, 100 units/ml Penicillin, 100 microg/ml Streptomycin, 150 microg/ml Zeocin, 300 microg/ml Geneticin. The cells were grown in a 5% CO2 humidified incubator at 37° C.
• 1. Cells were harvested and seeded in a poly-D-lysine coated black-sided clear bottom 384-well plate at density of 10,000 cells/well at 24 hours prior to assay. • 2. Incubate at 37° C. in 5% CO2. Day Two: • 1. Wash each well with assay buffer (see below) and leave 20 RI using plate washer, ELx-405 Select CW (BIO-TEK). • 2. Add 20 μL of assay buffer containing 6 μM Fluo-4-AM (Molecular Probes) and 0.005% Pluronic F-127 to each well. • 3. Incubate the plate at 37° C. for 1 hour. • 4. Wash each well assay buffer (see below) and leave 20 μl using plate washer, ELx-405 Select CW (BIO-TEK). • 5. Add 10 μl of compound solution into each well by FDSS6000 and leave the plate for 4.5 min, and then add 10 μl of potassium ionophore solution. • 6. Add 20 μl of high-K^+ depolarizing solution (see below) and monitor the change of fluorescent signal.
The IC50 values for compounds of the present invention were determined from 7-point dose-response studies. Curves were generated using the average of duplicate wells for each data point. Finally, the IC50 values are calculated with the best-fit dose curve determined by XLfit.

T1 sequence (O95180 whole entry): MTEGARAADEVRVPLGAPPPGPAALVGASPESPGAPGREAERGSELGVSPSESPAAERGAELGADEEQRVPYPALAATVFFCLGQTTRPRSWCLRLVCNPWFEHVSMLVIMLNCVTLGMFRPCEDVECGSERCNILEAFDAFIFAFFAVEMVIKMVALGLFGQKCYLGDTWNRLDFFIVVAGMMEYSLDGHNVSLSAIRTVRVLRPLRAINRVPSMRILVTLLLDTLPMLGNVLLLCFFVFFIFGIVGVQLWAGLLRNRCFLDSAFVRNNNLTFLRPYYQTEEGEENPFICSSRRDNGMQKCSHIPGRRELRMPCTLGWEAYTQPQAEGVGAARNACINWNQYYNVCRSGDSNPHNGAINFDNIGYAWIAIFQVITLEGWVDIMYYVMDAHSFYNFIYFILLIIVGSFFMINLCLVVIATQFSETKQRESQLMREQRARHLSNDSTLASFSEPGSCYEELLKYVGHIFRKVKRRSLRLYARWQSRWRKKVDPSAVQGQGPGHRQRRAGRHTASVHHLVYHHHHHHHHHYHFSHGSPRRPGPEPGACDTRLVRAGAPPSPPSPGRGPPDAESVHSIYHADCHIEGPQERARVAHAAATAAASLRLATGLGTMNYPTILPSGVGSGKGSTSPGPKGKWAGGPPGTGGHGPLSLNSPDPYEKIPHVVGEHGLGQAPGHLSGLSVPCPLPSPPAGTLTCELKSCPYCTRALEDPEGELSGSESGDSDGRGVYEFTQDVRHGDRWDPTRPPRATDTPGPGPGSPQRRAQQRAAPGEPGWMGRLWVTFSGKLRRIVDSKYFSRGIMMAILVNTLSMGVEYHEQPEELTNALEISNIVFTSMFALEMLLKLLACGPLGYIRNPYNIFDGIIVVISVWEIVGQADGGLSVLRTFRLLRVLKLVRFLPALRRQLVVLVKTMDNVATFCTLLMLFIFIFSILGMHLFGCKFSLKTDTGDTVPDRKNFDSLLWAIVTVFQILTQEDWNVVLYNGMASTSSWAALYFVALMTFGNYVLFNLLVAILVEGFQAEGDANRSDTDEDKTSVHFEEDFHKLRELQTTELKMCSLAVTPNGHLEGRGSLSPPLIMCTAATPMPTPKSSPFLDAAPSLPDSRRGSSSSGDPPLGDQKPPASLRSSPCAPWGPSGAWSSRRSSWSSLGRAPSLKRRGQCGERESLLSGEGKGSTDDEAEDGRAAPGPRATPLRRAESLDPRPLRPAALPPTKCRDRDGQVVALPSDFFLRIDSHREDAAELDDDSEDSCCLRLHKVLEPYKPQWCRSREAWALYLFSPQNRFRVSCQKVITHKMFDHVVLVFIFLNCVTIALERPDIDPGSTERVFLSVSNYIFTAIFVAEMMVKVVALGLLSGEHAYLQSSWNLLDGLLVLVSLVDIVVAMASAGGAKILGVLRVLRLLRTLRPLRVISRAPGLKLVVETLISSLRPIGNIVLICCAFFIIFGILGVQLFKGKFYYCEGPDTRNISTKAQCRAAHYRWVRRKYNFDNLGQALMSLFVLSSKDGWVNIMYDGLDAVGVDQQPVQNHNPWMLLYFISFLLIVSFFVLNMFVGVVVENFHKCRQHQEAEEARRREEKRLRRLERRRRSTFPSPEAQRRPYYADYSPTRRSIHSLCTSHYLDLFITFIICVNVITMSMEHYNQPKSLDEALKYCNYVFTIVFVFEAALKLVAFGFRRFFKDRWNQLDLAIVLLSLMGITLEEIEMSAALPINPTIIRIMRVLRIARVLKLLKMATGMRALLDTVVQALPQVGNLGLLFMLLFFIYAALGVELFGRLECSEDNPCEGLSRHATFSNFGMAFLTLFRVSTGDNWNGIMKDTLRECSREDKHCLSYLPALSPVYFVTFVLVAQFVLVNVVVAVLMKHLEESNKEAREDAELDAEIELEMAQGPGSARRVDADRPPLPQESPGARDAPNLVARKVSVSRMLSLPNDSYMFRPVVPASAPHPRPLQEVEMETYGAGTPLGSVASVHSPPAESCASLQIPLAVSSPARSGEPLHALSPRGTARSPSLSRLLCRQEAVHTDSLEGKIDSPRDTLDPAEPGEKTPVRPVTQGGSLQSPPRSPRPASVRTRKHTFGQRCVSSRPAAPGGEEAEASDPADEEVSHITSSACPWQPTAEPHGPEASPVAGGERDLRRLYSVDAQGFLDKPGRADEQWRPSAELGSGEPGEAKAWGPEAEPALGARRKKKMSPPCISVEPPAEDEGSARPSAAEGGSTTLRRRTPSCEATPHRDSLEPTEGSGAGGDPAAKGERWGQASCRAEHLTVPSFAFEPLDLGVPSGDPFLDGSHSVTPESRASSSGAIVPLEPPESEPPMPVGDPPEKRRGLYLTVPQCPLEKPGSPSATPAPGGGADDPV

| Compound | IC50 |
| --- | --- |
| C[C@@H](NC(=O)C1CC1c1c[nH]c2ccc(F)cc12)c1ccc(OCC(F)(F)F)cn1 (stereo in doubt) [Example 110, trans-2-(5-fluoro-1H-indol-3-yl)-N-((R)-1-(5-(2,2,2-trifluoroethoxy)pyridin-2-yl)ethyl)cyclopropanecarboxamide] | ≤ 0.3 µM |
| C[C@@H](NC(=O)[C@H]1C[C@@H]1c1ccc(F)cc1Cl)c1cnc(OCC(F)(F)F)cn1 (relative stereo) [Example 268, (1S*,2S*)-2-(2-chloro-4-fluorophenyl)-N-((R)-1-(5-(2,2,2-trifluoroethoxy)pyrazin-2-yl)ethyl)cyclopropanecarboxamide] | ≤ 0.3 µM |
| C[C@@H](NC(=O)[C@H]1C[C@@H]1c1cc(F)cc(F)c1)c1ccc(OCC(F)(F)F)cn1 (relative stereo) [Example 253, (1S*,2S*)-2-(3,5-difluorophenyl)-N-((R)-1-(5-(2,2,2-trifluoroethoxy)pyridin-2-yl)ethyl)cyclopropanecarboxamide] | ≤ 0.3 µM |
| C[C@@H](NC(=O)[C@@H]1C[C@H]1c1c(F)cc(F)cc1F)c1ccc(OCC2CC2)cn1 (relative stereo) [Example 266] | ≤ 0.3 µM |
| COc1ccc([C@H]2C[C@@H]2C(=O)N[C@H](C)c2ccc(OCC(F)(F)F)cn2)cc1 (relative stereo) [Example 259, (1S*,2S*)-2-(4-methoxyphenyl)-N-((R)-1-(5-(2,2,2-trifluoroethoxy)pyridin-2-yl)ethyl)cyclopropanecarboxamide] | ≤ 0.3 µM |
| C[C@@H](NC(=O)C1CC1c1nc2ccccc2n1C)c1ccc(OCC(F)(F)F)cn1 (stereo in doubt) [Example 243, trans-2-(1-methyl-1H-benzo[d]imidazol-2-yl)-N-((R)-1-(5-(2,2,2-trifluoroethoxy)pyridin-2-yl)ethyl)cyclopropanecarboxamide] | ≤ 0.3 µM |
| C[C@@H](NC(=O)[C@@H]1C[C@H]1c1cccc2cc[nH]c12)c1ccc(OCC2CC2)cn1 (relative stereo) [Example 317, (1R*,2R*)-N-((R)-1-(5-(cyclopropylmethoxy)pyridin-2-yl)ethyl)-2-(1H-indol-7-yl)cyclopropanecarboxamide] | ≤ 0.3 µM |
| C[C@@H](NC(=O)[C@@H]1C[C@H]1c1c[nH]c2ccccc12)c1ccc(OCC(F)(F)F)cn1 (relative stereo) [Example 134, (1R*,2R*)-2-(1H-indol-3-yl)-N-((R)-1-(5-(2,2,2-trifluoroethoxy)pyridin-2-yl)ethyl)cyclopropanecarboxamide] | ≤ 0.3 µM |
| C[C@@H](NC(=O)C1CC1Cn1ccc2ccccc21)c1ccc(OCC(F)(F)F)cn1 (stereo in doubt) [Example 182, trans-2-((1H-indol-1-yl)methyl)-N-((R)-1-(5-(2,2,2-trifluoroethoxy)pyridin-2-yl)ethyl)cyclopropanecarboxamide] | ≤ 0.3 µM |
| C[C@@H](NC(=O)[C@H]1C[C@@H]1c1ccc(OCc2ccccn2)cc1)c1ccc(OCC(F)(F)F)cn1 (relative stereo) [Example 305, (1S*,2S*)-2-(4-(pyridin-2-ylmethoxy)phenyl)-N-((R)-1-(5-(2,2,2-trifluoroethoxy)pyridin-2-yl)ethyl)cyclopropanecarboxamide] | ≤ 0.3 µM |
| C[C@@H](NC(=O)C1CC1c1nc2ccccc2n1C)c1cnc(OCC(F)(F)F)cn1 (stereo in doubt) [Example 244, trans-2-(1-methyl-1H-benzo[d]imidazol-2-yl)-N-((R)-1-(5-(2,2,2-trifluoroethoxy)pyrazin-2-yl)ethyl)cyclopropanecarboxamide] | ≤ 0.3 µM |
| C[C@@H](NC(=O)[C@H]1C[C@@H]1c1ccc(F)cc1Cl)c1ccc(OCC2CC2)cn1 (relative stereo) [Example 261, (1S*,2S*)-2-(2-chloro-4-fluorophenyl)-N-((R)-1-(5-(cyclopropylmethoxy)pyridin-2-yl)ethyl)cyclopropanecarboxamide] | ≤ 0.3 µM |
| C[C@@H](NC(=O)[C@H]1C[C@@H]1c1cccc2cc[nH]c12)c1ccc(OCC2CC2)cn1 (relative stereo) [Example 316, (1S*,2S*)-N-((R)-1-(5-(cyclopropylmethoxy)pyridin-2-yl)ethyl)-2-(1H-indol-7-yl)cyclopropanecarboxamide] | ≤ 0.3 µM |
| C[C@@H](NC(=O)[C@H]1C[C@@H]1c1ccccc1)c1ccc(OCC(F)(F)F)cn1 (relative stereo) [Example 280, (1S*,2S*)-2-phenyl-N-((R)-1-(5-(2,2,2-trifluoroethoxy)pyridin-2-yl)ethyl)cyclopropanecarboxamide] | ≤ 0.3 µM |
| C[C@@H](NC(=O)[C@H]1C[C@@H]1c1c[nH]c2ccccc12)c1ccc(OCC(F)(F)F)cn1 (relative stereo) [Example 133, (1S*,2S*)-2-(1H-indol-3-yl)-N-((R)-1-(5-(2,2,2-trifluoroethoxy)pyridin-2-yl)ethyl)cyclopropanecarboxamide] | ≤ 0.3 µM |
| C[C@@H](NC(=O)C1CC1c1ccc2ccn(C)c2c1)c1ccc(OCC(F)(F)F)nc1 (stereo in doubt) [Example 208, trans-2-(1-methyl-1H-indol-6-yl)-N-((R)-1-(6-(2,2,2-trifluoroethoxy)pyridin-3-yl)ethyl)cyclopropanecarboxamide] | ≤ 0.3 µM |
| C[C@@H](NC(=O)[C@H]1C[C@@H]1c1cccc2cc[nH]c12)c1cnc(OCC(F)(F)F)cn1 (relative stereo) [Example 322, (1S*,2S*)-2-(1H-indol-7-yl)-N-((R)-1-(5-(2,2,2-trifluoroethoxy)pyrazin-2-yl)ethyl)cyclopropanecarboxamide] | ≤ 0.3 µM |
| C[C@@H](NC(=O)[C@H]1C[C@@H]1c1c(F)cc(F)cc1F)c1cnc(OCC(F)(F)F)cn1 (relative stereo) [Example 271, (1S*,2S*)-N-((R)-1-(5-(2,2,2-trifluoroethoxy)pyrazin-2-yl)ethyl)-2-(2,4,6-trifluorophenyl) cyclopropanecarboxamide] | ≤ 0.3 µM |
| C[C@@H](NC(=O)C1CC1c1cccc2cc[nH]c12)c1ccc(OCC(F)(F)F)nc1 (stereo in doubt) [Example 212, trans-2-(1H-indol-7-yl)-N-((R)-1-(6-(2,2,2-trifluoroethoxy)pyridin-3-yl)ethyl)cyclopropanecarboxamide] | ≤ 0.3 µM |
| C[C@@H](NC(=O)C1CC1c1ccc2cccnc2c1)c1ccc(OCC(F)(F)F)nc1 (stereo in doubt) [Example 206, trans-2-(quinolin-7-yl)-N-((R)-1-(6-(2,2,2-trifluoroethoxy)pyridin-3-yl)ethyl)cyclopropanecarboxamide] | ≤ 0.3 µM |
| C[C@@H](NC(=O)C1CC1c1cc(F)cc(F)c1)c1ccc(OCC2CC2)cn1 (stereo partly drawn) [Example 193, trans-N-((R)-1-(5-(cyclopropylmethoxy)pyridin-2-yl)ethyl)-2-(3,5-difluorophenyl) cyclopropanecarboxamide] | ≤ 0.3 µM |
| Cc1cccc([C@H]2C[C@@H]2C(=O)N[C@H](C)c2ccc(OCC(F)(F)F)cn2)c1 (relative stereo) [Example 251, (1S*,2S*)-2-m-tolyl-N-((R)-1-(5-(2,2,2-trifluoroethoxy)pyridin-2-yl)ethyl)cyclopropanecarboxamide] | ≤ 0.3 µM |
| C[C@@H](NC(=O)[C@@H]1C[C@H]1c1ccc2cc[nH]c2c1)c1ccc(OCC(F)(F)F)cn1 (relative stereo) [Example 204, (1R*,2R*)-2-(1H-indol-6-yl)-N-((R)-1-(5-(2,2,2-trifluoroethoxy)pyridin-2-yl)ethyl)cyclopropanecarboxamide] | ≤ 0.3 µM |
| COc1ccc([C@@H]2C[C@H]2C(=O)N[C@H](C)c2cnc(OCC(F)(F)F)cn2)cc1C (relative stereo) [Example 310, (1R*,2R*)-2-(4-methoxy-3-methylphenyl)-N-((R)-1-(5-(2,2,2-trifluoroethoxy)pyrazin-2-yl)ethyl)cyclopropanecarboxamide] | ≤ 0.3 µM |
| C[C@@H](NC(=O)C1CC1c1c[nH]c2c(F)cccc12)c1ccc(OCC(F)(F)F)cn1 (stereo in doubt) [Example 108, trans-2-(7-fluoro-1H-indol-3-yl)-N-((R)-1-(5-(2,2,2-trifluoroethoxy)pyridin-2-yl)ethyl)cyclopropanecarboxamide] | ≤ 0.3 µM |
| COc1cccc([C@H]2C[C@@H]2C(=O)N[C@H](C)c2ccc(OCC(F)(F)F)cn2)c1 (relative stereo) [Example 258, (1S*,2S*)-2-(3-methoxyphenyl)-N-((R)-1-(5-(2,2,2-trifluoroethoxy)pyridin-2-yl)ethyl)cyclopropanecarboxamide] | ≤ 0.3 µM |
| C[C@@H](NC(=O)C1CC1c1cc2cc(F)ccc2[nH]1)c1ccc(OCC(F)(F)F)cn1 (stereo in doubt) [Example 125, trans-2-(5-fluoro-1H-indol-2-yl)-N-((R)-1-(5-(2,2,2-trifluoroethoxy)pyridin-2-yl)ethyl)cyclopropanecarboxamide] | ≤ 0.3 µM |
